The nature of data set [1]: Fibre width of dried SAP hydrogels by scanning electron microscopy. The format is physicochemical. The note with it: SEM of critical-point-dried hydrogel, 15 mg ml^-1 in Tris–NaCl, ionic strength 140 mM, pH 7.2–8.0, assembled overnight; 25 fibre widths per picture, ImageJ; mean ± SD. How it is done:
Nanofibrillar structure of SAP hydrogels was formed for scanning electron microscopy (SEM) (Zeiss SUPRA® 40VP) at a concentration of 15 mg ml^−1 in Tris–NaCl buffer to a final ionic strength of 140 mM and a final pH of 7.2–8.0, as described in table 1. SAP hydrogels were assembled overnight. Self-assembly was apparent due to the gelation and β-sheet formation of the fibrillar structure as described by Aggeli et al. and Carrick et al. (by circular dichroism, Fourier transform infrared spectroscopy and transmission electron microscopy) and was further confirmed in the present study for P11-4 and P11-8 (see electronic supplementary material, figures S4, S6 and S7). SAP hydrogels were fixed with a glutaraldehyde solution (4% in borate buffer, using 0.1 ml per 0.1 ml peptide hydrogel) for 24 h. Gels were then dehydrated by increasing ethanol concentration in steps (25%, 50%, 60%, 70%, 80%, 90%, 100% ethanol) at 15 min intervals. The last step (100% ethanol) was repeated three times. Afterwards, critical point drying (Balzers Union, CPD020) was applied to stabilize the natural three-dimensional network structure. Finally, the network structures were glued on an SEM stub with carbon tape and sputter coated with 2.5 nm gold–palladium (Thermo VG Scientific, Polaron, SC7620). […] Fibre diameters were analysed with IMAGEJ software. Twenty-five fibre widths were measured for each picture.

Data set [2] is described as follows: Oscillatory time sweep (hydrogel stiffness at t = 100 min, gelation speed). The format is physicochemical. The note with it: for Stiffness (storage modulus G′ at t = 100 min) / Speed (gelation speed, dG′/dt 5–10 min): time sweep, mean ± SD. How it is done:
Dynamic oscillatory amplitude sweeps up to 150% strain were performed at 37°C using an Anton Paar MCR301 rheometer equipped with a 10 mm diameter stainless steel parallel plate geometry at a 0.9 mm measuring gap. The amplitude sweep tests were performed to measure storage moduli (G′) within the linear viscoelastic region. Calculations of the gel breaking points (yield points) were performed with MATLAB depending on the different peptide concentrations. Therefore, the yield strain was defined as the point where G′ is less than 95% of its original value. Oscillatory time sweep experiments were performed to study the gelation speed and hydrogel stiffness. Time sweeps up to 150 min measuring time using a frequency of 1 rad s^−1 and amplitude gamma of 0.05% were used. SAP hydrogel stiffness was determined after the equilibrium of the storage modulus (G′) was reached (t = 100 min). To determine the gelation speed, the slope of increasing storage modulus over time was calculated in the interval from t = 5 to 10 min after placing peptide solutions onto the rheometer.
To study the influence of divalent ions and different media on SAP hydrogel stiffness, gelation speed and gel breaking points (yield points), SAPs were prepared at a concentration of 15 mg ml^−1 in the different media, Tris–NaCl, Tris–MgSO4, DMEM or artificial saliva, according to table 1. All experiments were done at least in duplicate. Statistical evaluation was performed with GRAPHPAD PRISM version 6.0 based on a one-way ANOVA test followed by Tukey's multiple comparison test.

For data set [3] the following is noted: literature, cited from earlier work. The source says: The topographical structure of SAP hydrogels is important for the three-dimensional arrangement of cells within scaffolds. Zhang et al. state that the fibres of SAP hydrogels resemble the nanometre scale of natural polymer networks and thus allow three-dimensional cell growth. […] (figure 1). […] Moreover, they observed the formation fibre entanglements with diameters of 30 nm. The phenomenon of fibril clustering was also reported by Zhang et al. for the peptides KFE8 and KLD12, characterized by a typical single fibre width of 7 nm and thicker diameters for the bundles of fibres.

[4] abbreviates: 15 mg ml^-1, artificial saliva, n = 3.
The mark [5] stands for this setting: 15 mg ml^-1, serum-free DMEM, n = 3.
Where [6] appears, read: artificial saliva versus DMEM, 15 mg ml^-1.

Structures are written as SMILES. Where a SMILES comes first, the peptide text is derived from it.

Turning to `CC(=O)N[C@@H](CCC(N)=O)C(=O)N[C@@H](CCC(N)=O)C(=O)N[C@@H](CCCNC(=N)N)C(=O)N[C@@H](Cc1ccccc1)C(=O)N[C@@H](CCC(=O)O)C(=O)N[C@@H](Cc1c[nH]c2ccccc12)C(=O)N[C@@H](CCC(=O)O)C(=O)N[C@@H](Cc1ccccc1)C(=O)N[C@@H](CCC(=O)O)C(=O)N[C@@H](CCC(N)=O)C(=O)N[C@@H](CCC(N)=O)C(N)=O` [P11-4, CH3CO-QQRFEWEFEQQ-NH2] (Ac-QQRFEWEFEQQ-NH2), the mean fibre width in data set [1] was determined as 32 ± 6.6 nm. In addition, the “Stiffness (storage modulus G′ at t = 100 min)” value in data set [2] (15 mg ml^-1, Tris–MgSO4, 1 rad s^-1, 37°C, n = 3) was determined as 9.5±2.7 kPa; in data set [2] (15 mg ml^-1, Tris–NaCl, 1 rad s^-1, 37°C, n = 3), 5.0± 2.1 kPa; in data set [2] (setting [4]), 4.9 ± 1.6 kPa; in data set [2] (setting [5]), 0.4± 0.01 kPa. The “Speed (gelation speed, dG′/dt 5–10 min)” value in data set [2] (15 mg ml^-1, Tris–MgSO4) is reported as 0.8±0.1 G`/min; in data set [2] (15 mg ml^-1, Tris–NaCl), 1.6± 0.6 G`/min; in data set [2] (setting [4]) it was 2.3 ± 0.9 G`/min; in data set [2] (setting [5]), 1.3 ± 0.4 G`/min. Further, the “factor of increase of gelation (speed) in artificial saliva” value in data set [2] (setting [6]) stood at 1.8. In addition, the “factor of increase of hydrogel stiffness if prepared with artificial saliva” value in data set [2] (setting [6]) is 12. For the same compound, in data set [3] (P11-4 and P11-8 prepared in NaCl), the fibril width is on record as 14 nm. The “diameter of fibre entanglements” value in data set [3] (prepared in NaCl) was 30 nm.

(Values after PMC5882690, “Mechanical characteristics of beta sheet-forming peptide hydrogels are dependent on peptide sequence, concentration and buffer composition” (Royal Society Open Science, 2018).)
